Among the data in ChEMBL document CHEMBL1122067, “Species- or isozyme-specific enzyme inhibitors. 4. Design of a two-site inhibitor of adenylate kinase with isozyme selectivity” (J Med Chem, 1982) are Ki and Inhibition constant values, retold here.

Assay [1] can be described thus: Non-competitive binding inhibition constant (Ki) of rat adenylate kinase (AK) isozymes was determined.
Assay [2] has as its target T1, GTP:AMP phosphotransferase AK3, mitochondrial (Rattus norvegicus, UniProt P29411). As to the kind of experiment: Competitive binding inhibition constant of rat Adenylate kinase III was determined.
Assay [3] can be described thus: Competitive binding inhibition constant (Ki) of rat adenylate kinase (AK) isozymes was determined.
A short description of assay [4]: Non competitive binding inhibition constant (Ki) of rat adenylate kinase (AK) isozymes was determined.
Assay [5] addresses T1, GTP:AMP phosphotransferase AK3, mitochondrial. As to the kind of experiment: Non competitive binding inhibition of rat adenylate kinase IIl was determined.
Assay [6] has as its target T2, Adenylate kinase 2, mitochondrial (Rattus norvegicus, UniProt P29410). As to the kind of experiment: Non competitive binding inhibition constant (Ki) of rat adenylate kinase (AK II) isozymes was determined.
In assay [7] the target is T1, GTP:AMP phosphotransferase AK3, mitochondrial. As to the kind of experiment: Competitive binding inhibition constant of rat adenylate kinase IIl was determined.
Assay [8] has the same target. As to the kind of experiment: Non competitive binding inhibition constant of rat aAdenylate kinase III was determined.
A short description of assay [9]: Non competitive binding inhibition constant(Ki) of rat adenylate kinase (AK) isozymes was determined.
The nature of assay [10]: Non-competitive binding inhibition constant(Ki) of rat adenylate kinase (AK) isozymes was determined.
In assay [11] the target is T2, Adenylate kinase 2, mitochondrial. As to the kind of experiment: Competitive binding inhibition constant(Ki) of rat adenylate kinase (AK II) isozymes was determined.
The target is the same in assay [12]. As to the kind of experiment: Ability to inhibit the rat muscle adenylate kinase (AK II) isozyme in competition with the AMP varied. The conditions noted are these: in the assay text read “rat liver” for “rat muscle”.
Assay [13] shares this target. As to the kind of experiment: Ability to inhibit the rat muscle adenylate kinase (AK II) isozyme in competition with the ATP varied. The conditions noted are these: in the assay text read “rat liver” for “rat muscle”.
A short description of assay [14]: Ability to inhibit the rat muscle adenylate kinase isozyme in competition with the AMP varied.
The nature of assay [15]: Ability to inhibit the rat muscle adenylate kinase isozyme in competition with the ATP varied.
Assay [16] deals with T1, GTP:AMP phosphotransferase AK3, mitochondrial. As to the kind of experiment: Ability to inhibit the rat muscle adenylate kinase lII in competition with the AMP varied. Particulars: in the assay text read “rat liver adenylate kinase III” for “rat muscle adenylate kinase lII”.
The target of assay [17] is T2, Adenylate kinase 2, mitochondrial. As to the kind of experiment: Ability to inhibit the rat muscle adenylate kinase(AK II) isozyme in competition with the ATP varied. Particulars: in the assay text read “rat liver” for “rat muscle”.
For assay [18] the target is unchanged. As to the kind of experiment: Ability to inhibit the rat muscle adenylate kinase(AK II) isozyme in competition with the AMP varied. The conditions noted are these: in the assay text read “rat liver” for “rat muscle”.

“And” between values parts separate entries of the source, which are not always exact repeats. Equal values may be shown once.

T1 sequence (P29411 whole entry): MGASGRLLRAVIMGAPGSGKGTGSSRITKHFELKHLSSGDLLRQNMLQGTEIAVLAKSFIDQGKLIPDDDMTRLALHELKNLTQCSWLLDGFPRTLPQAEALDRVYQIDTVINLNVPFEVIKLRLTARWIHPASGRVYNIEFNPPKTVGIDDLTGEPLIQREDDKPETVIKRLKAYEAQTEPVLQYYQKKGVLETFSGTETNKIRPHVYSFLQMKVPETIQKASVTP

Turning to `CC(=O)NCCCCCCNc1ncnc2c1ncn2C1O[C@H](COP(=O)(O)OP(=O)(O)OP(=O)(O)O)[C@@H](O)[C@H]1O` (some centres not stated), the Ki in [1] amounted to 12.9 mM; in assay [2], 4.8 mM.
On to `CCCCN(CCCC)c1ncnc2c1ncn2C1O[C@H](COP(=O)(O)OP(=O)(O)OP(=O)(O)O)[C@@H](O)[C@H]1O` (some centres not stated), for which the results for the Ki in assay [3] and in assay [2] were 2 mM and 3 mM, respectively.
Regarding `CC(=O)NCCCCCCCCNc1ncnc2c1ncn2C1O[C@H](COP(=O)(O)O)[C@@H](O)[C@H]1O` (some centres not stated), the figures for the Ki in assay [4], in assay [5] and in assay [6] were 4.8 mM, 14 mM and 12.6 mM, respectively.
Turning to `O=C(CI)NCCCCCNc1ncnc2c1ncn2C1O[C@H](COP(=O)(O)OP(=O)(O)OP(=O)(O)O)[C@@H](O)[C@H]1O` (some centres not stated), the Ki in [1] came to 6 mM; in [7] it was 6.2 mM.
Turning to `CC(=O)NCCNc1ncnc2c1ncn2C1O[C@H](COP(=O)(O)O)[C@@H](O)[C@H]1O` (some centres not stated), the Ki in assay [8] came to 12.4 mM; in assay [9], 3.1 mM; in assay [6] it was 11.4 mM.
As for `CCCSc1nc2c(N)ncnc2n1[C@@H]1O[C@H](COP(=O)(O)OP(=O)(O)OP(=O)(O)O)[C@@H](O)[C@H]1O`, the Ki in [10] amounted to 6.2 mM; in [2], 0.07 mM; in [11], 0.06 mM.
For the compound `Nc1ncnc2c1nc(Sc1ccccc1)n2[C@@H]1O[C@H](COP(=O)(O)OP(=O)(O)OP(=O)(O)O)[C@@H](O)[C@H]1O`, the results for the Ki in assay [1] and in assay [2] were 4 mM and 0.32 mM, respectively.
`Nc1ncnc2c1ncn2[C@@H]1O[C@H](COP(=O)(O)OP(=O)(O)OP(=O)(O)OP(=O)(O)OP(=O)(O)OC[C@H]2O[C@@H](n3cnc4c(N)ncnc43)[C@H](O)[C@@H]2O)[C@@H](O)[C@H]1O`: the Inhibition constant came to 0.28 µM in assay [12]; 0.3 µM in assay [13]; 0.26 µM in assay [14]; 0.26 µM in assay [15]; 0.3 µM in [16].
`CCSc1nc2c(N)ncnc2n1C1O[C@H](COP(=O)(O)OP(=O)(O)OP(=O)(O)OP(=O)(O)OP(=O)(O)OC[C@H]2OC(n3cnc4c(N)ncnc43)[C@H](O)[C@@H]2O)[C@@H](O)[C@H]1O` (some centres not stated): the Inhibition constant in assay [17] is 0.08 µM; in [18], 0.06 µM; in assay [14], 3.5 µM; in assay [15], 3 µM; in assay [16], 0.08 µM and 0.07 µM.

As a reminder, the Ki is a dissociation constant, usually derived from enzyme kinetics or from competition with a known ligand. High values mean weaker binding, low ones tighter binding.
